Assay results as given in ChEMBL document CHEMBL3098115, “Drug discovery considerations in the development of covalent inhibitors” (2014).

Key:
Assay type in all cases: functional
Mus musculus [1] = experiment: Ex vivo inhibition of CE6 in C57BL/6 mouse liver at 1 mg/kg, ip after 1 hr relative to vehicle-treated control; settings: C57BL/6, Liver, route intraperitoneal
Mus musculus [2] = experiment: Ex vivo inhibition of CE6 in C57BL/6 mouse kidney at 1 mg/kg, ip after 1 hr relative to vehicle-treated control; settings: C57BL/6, Kidney, route intraperitoneal
Mus musculus [3] = experiment: Ex vivo inhibition of EST31 in C57BL/6 mouse liver at 1 mg/kg, ip after 1 hr relative to vehicle-treated control; settings: C57BL/6, Liver, route intraperitoneal
Mus musculus [4] = experiment: Ex vivo inhibition of EST31 in C57BL/6 mouse kidney at 1 mg/kg, ip after 1 hr relative to vehicle-treated control; settings: C57BL/6, Kidney, route intraperitoneal

Measured: inhibition in vivo at 1 mg/kg

C#CCCCCCCCCCNC(=O)Oc1cccc(-c2cccc(C(N)=O)c2)c1
< 20%: all assays above
